Source: patent US12472166B2, “Inhibition of mycobacterial type VII secretion” (priority 2019, dated 2025)
Read-outs that look alike come from different tables or passages of the source.

Experiments:
M. tuberculosis = test: microbe, parasite or virus in culture; format: cell-based; details: for IC50: read-out: IC50 (μM) M.tb/REMA; for IC90: read-out: IC90 (μM) M.tb/REMA
[1] = human, microsomes, pH 7.4; for Compound remaining (%): 0.5 h
in vitro = details: human, microsomes, pH 7.4
zebrafish embryos = details: in vivo
M. marinum = format: cell-based
[2] = Mycobacterium tuberculosis, 168 h, replicating M. tuberculosis, seven days, 37° C.
[3] = Mycobacterium tuberculosis, concentration that reduced bacterial viability to lower than 10%
[4] = Mycobacterium tuberculosis, 168 h

SMILES | IC50 (M. tuberculosis; [2]) [µM] | IC90 (M. tuberculosis; [3]) [µM] | further results
COc1ccc(-c2nsc(SCC(=O)NC3CCCCC3)n2)cc1 [Compound I-22] | 0.663 | 2.5 | 
O=C(CSc1nc(-c2ccncc2)ns1)NC1CCCC1 [Compound I-23] | 0.762 | 2.5 | 
COc1ccc(-c2nsc(SCC(=O)Nc3cnccn3)n2)cc1 [Compound I-24] | 4.1 | 2.5 | 
COc1ccc(-c2nsc(SCC(=O)OC3CCCC3)n2)cc1 [Compound I-25] | 0.526 | 5 | 
O=C(CSc1nc(-c2ccccc2)ns1)NC1CCCC1 [Compound I-26] | 1.17 | 5 | 
CNC(=O)CSc1nc(-c2ccc(OC)cc2)ns1 [Compound I-27] | 1.85 | 5 | 
O=C(CSc1nc(-c2ccccc2)no1)NC1CCCC1 [Compound I-28] |  |  | IC50 (M. tuberculosis; [4]): 2.11 µM; IC90 (M. tuberculosis; Mycobacterium tuberculosis): 5 µM
CCCC(C)NC(=O)CSc1nc(-c2ccc(OC)cc2)ns1 (stereo not drawn) [Compound I-29] | 1.25 | 10 | 
COc1ccc(-c2nsc(SCC(=O)NCc3ccccc3)n2)cc1 [Compound I-30] | 2.42 | 10 | 
O=C(CSc1nc(-c2ccccc2)no1)NC1CCCC1 [Compound I-31] |  |  | growth of M. tuberculosis (M. tuberculosis; 10 μM): inhibited growth; IC50 (M. tuberculosis): 2.71 µM; IC90 (M. tuberculosis): 10 µM
COc1ccc(-c2nsc(SCC(=O)NC(C)(C)C)n2)cc1 [Compound I-32] | 0.109 | > 10 | 
O=C(COc1nc(-c2ccccc2)ns1)NC1CCCC1 [Compound I-33] | 7.85 | 10 | Half-life ([1]; 15 μM): 61.8 min; Compound remaining (%) [1]: 72%; CLint scaled at 15 μM (in vitro): 10.1 mL/min/kg
COc1ccc(-c2nsc(SCC(=O)NCCC(F)(F)F)n2)cc1 [Compound I-34] | 0.038 | 0.31 | 
O=C(CSc1nc(-c2ccccc2)ns1)NCCC(F)(F)F [Compound I-35] | 0.224 | 0.63 | Half-life ([1]; 15 μM): 48.6 min; Compound remaining (%) [1]: 65%; CLint scaled at 15 μM (in vitro): 12.8 mL/min/kg
CCCNC(=O)CSc1nc(-c2ccc(Cl)cc2)ns1 [Compound I-36] | 0.058 | 0.16 | Half-life ([1]; 15 μM): 43.2 min; Compound remaining (%) [1]: 62%; CLint scaled at 15 μM (in vitro): 14.4 mL/min/kg
O=C(CSc1nc(-c2ccc(Cl)cc2)ns1)NCCC(F)(F)F [Compound I-37] | 0.116 | 0.31 | Compound remaining (%) [1]: 55%; Half-life [1]: 34.8 min; CLint scaled (in vitro): 18 mL/min/kg
COc1ccc(-c2nsc(SCC(=O)NCC3CCCC3)n2)cc1 [Compound I-38, reference compound] |  |  | IC50 (M. tuberculosis; [4]): 0.447 µM; IC90 (M. tuberculosis; Mycobacterium tuberculosis): 1.25 µM; toxicity (survival of zebra fish embryos scored by heartbeat) (zebrafish embryos): somewhat less toxic than I-40 and I-41
Cc1cccc(-c2nsc(SCC(=O)NCC3CCCO3)n2)c1 (stereo not drawn) [Compound I-39, reference compound] |  |  | IC50 (M. tuberculosis; [4]): 0.248 µM; IC90 (M. tuberculosis; Mycobacterium tuberculosis): 0.63 µM; toxicity (survival of zebra fish embryos scored by heartbeat) (zebrafish embryos): least toxic of the comparative compounds
CCOC(=O)CNC(=O)CSc1nc(-c2cccc(C)c2)ns1 [Compound I-40, reference compound] |  |  | IC50 (M. tuberculosis; [4]): 0.169 µM; IC90 (M. tuberculosis; Mycobacterium tuberculosis): 0.31 µM; toxicity (survival of zebra fish embryos scored by heartbeat) (zebrafish embryos): toxic
CCOC(=O)CNC(=O)CSc1nc(-c2ccccc2)ns1 [Compound I-41, reference compound] |  |  | IC50 (M. tuberculosis; [4]): 0.269 µM; IC90 (M. tuberculosis; Mycobacterium tuberculosis): 0.63 µM; toxicity (survival of zebra fish embryos scored by heartbeat) (zebrafish embryos): toxic
CCCNC(=O)COc1nc(-c2ccccc2)ns1 [Compound I-42] | > 10 | > 10 | 
CO[C@H]1/C=C/O[C@@]2(C)Oc3c(C)c(O)c4c(O)c(c(/C=N/N5CCN(C)CC5)c(O)c4c3C2=O)NC(=O)/C(C)=C\C=C\[C@H](C)[C@H](O)[C@@H](C)[C@@H](O)[C@@H](C)[C@H](OC(C)=O)[C@@H]1C [Rifampin, reference compound] |  |  | bacterial viability (REMA) readout, control condition (M. marinum): negative
